How the values were obtained:
HL-60 cells = assay: in vitro; type: cell-based, human; conditions: 300 µmol/L, about 24 hours; for cytotoxicity (%) Evaluation compound results: PMA-differentiated HL-60 cells, LDH activity, no-treatment group 0%, cell lysis buffer-treated group 100%
Procedure: (§1) An HL-60 cell line (human acute promyelocytic leukemia cells) was successively cultured in RPMI 1640 containing 20% fetal bovine serum (FBS) at 37°C in 95% atmosphere/5% CO2. Before evaluation, the cells were pre-cultured for about 72 hours in the presence of 10 nM phorbol 12-myristate 13-acetate (PMA) to induce macrophage-like differentiation.
(§2) Evaluation compounds were dissolved in DMSO to obtain 30 mmol/L solutions (or suspensions). Each DMSO solution was diluted 100-fold with RPMI 1640 containing 2% FBS (final concentration of the compound: 300 µmol/L) to obtain a treatment solution. The culture supernatant of the differentiated HL-60 cells was removed, and each treatment solution was added and cultured for about 24 hours, followed by cytotoxicity evaluation.
(§3) The activity of lactate dehydrogenase (LDH) was measured in the treatment solutions exposed to the cells for about 24 hours by using a commercial kit (Cytotoxicity LDH Assay Kit-WST, Dojindo Laboratories) and a plate reader (Tecan Infinite M1000). The obtained measurement values were used to calculate cytotoxicity (%) as comparison values for each evaluation compound-treated group, with the no-treatment group taken as 0% and the cell lysis buffer-treated group taken as 100%. The test was conducted in triplicate in three wells each, and the average values were used as adopted values.

[1] = type: physicochemical; conditions: Tris-hydrochloric acid buffer (pH 7.5) 50 mmol/L, magnesium chloride 5 mmol/L, evaluation compound 1 µmol/L, 37°C, 60 minutes, average of duplicate
Procedure, shortened: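 Conversion of compounds to brexpiprazole measured in buffer at 37°C, in duplicate: compound added after 3 min pre-incubation of reaction solution, and reaction stopped at 0 or 60 min with acetonitrile/isopropanol (4:1) containing internal standards. Quantified against calibration samples at 0.01, 0.1 and 1 µmol/L.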

[2] = Dog irritation study (subcutaneous administration); type: in vivo, dogs; conditions: stated in the cytotoxicity method, no details
Procedure: Male beagle dogs were purchased at the age of 5-7 months from Kitayama Labes Co., Ltd. and used in the experiment after acclimatization. The breeding environment was as follows: feeding: 250 g of solid feed once a day, water intake: unlimited, number of animals per cage: 1, temperature: 21-25°C, humidity: 50-70%, lighting time: 7:00-19:00. The test formulation was subcutaneously administered to dogs anesthetized with 25 mg/kg thiopental sodium using a plastic syringe at a dose of 10 mg/kg per formulation, changing the position on the back. […] The collected tissues were fixed in 10% neutral buffered formalin, and hematoxylin and eosin-stained specimens were prepared for histopathological examination.

in vitro = type: cell-based, human; conditions: human; 300 µmol/L, about 24 hours, PMA-differentiated HL-60 cells, LDH activity; no-treatment group 0%, cell lysis buffer-treated group 100%; read-out: cytotoxicity (%) Evaluation compound results
Procedure: as §1, §2, §3

CC(C)(C)[Si](C)(C)OCCCCOP(=O)([O-])OC[N+]1(CCCCOc2ccc3ccc(=O)[nH]c3c2)CCN(c2cccc3sccc23)CC1 [EX 60]
cytotoxicity (%) Evaluation compound results (HL-60 cells): 16%
Concentration of brexpiprazole formed [1]: 0 nM
Concentration of evaluation compound decreased [1]: 90 nM

CCCCCC(=O)OCn1c(=O)ccc2ccc(OCCCCN3CCN(c4cccc5sccc45)CC3)cc21 [Reference Example 3 compound, (7-(4-(4-(benzo[b]thiophen-4-yl)piperazin-1-yl)butoxy)-2-oxoquinolin-1(2H)-yl)methyl hexanoate]
irritation when subcutaneously administered to dogs [2]: showed irritation

COCCN(CCOC)P(=O)([O-])OC[N+]1(CCCCOc2ccc3ccc(=O)[nH]c3c2)CCN(c2cccc3sccc23)CC1 [EX 153]
cytotoxicity (%) Evaluation compound results (HL-60 cells): -7%
Concentration of brexpiprazole formed [1]: 0 nM
Concentration of evaluation compound decreased [1]: -10 nM

CCOP(=O)([O-])OC[N+]1(CCCCOc2ccc3ccc(=O)[nH]c3c2)CCN(c2cccc3sccc23)CC1 [EX 3, (4-(benzo[b]thiophen-4-yl)-1-(4-((2-oxo-1,2-dihydroquinolin-7-yl)oxy)butyl)piperazin-1-ium-1-yl)methyl ethyl phosphate]
cytotoxicity at 24 h, 300 µM (in vitro): -7%
Concentration of brexpiprazole formed [1]: 0 nM
Concentration of evaluation compound decreased [1]: 10 nM

CCCCCC(=O)OCOP(=O)([O-])OC[N+]1(CCCCOc2ccc3ccc(=O)[nH]c3c2)CCN(c2cccc3sccc23)CC1 [EX 16, (4-(benzo[b]thiophen-4-yl)-1-(4-((2-oxo-1,2-dihydroquinolin-7-yl)oxy)butyl)piperazin-1-ium-1-yl)methyl ((hexanoyloxy)methyl)phosphate]
cytotoxicity at 24 h, 300 µM (in vitro): 17%
Concentration of brexpiprazole formed [1]: 0 nM
Concentration of evaluation compound decreased [1]: 10 nM

CCCCCCCCCC(=O)OCOP(=O)([O-])OC[N+]1(CCCCOc2ccc3ccc(=O)[nH]c3c2)CCN(c2cccc3sccc23)CC1 [EX 17, (4-(benzo[b]thiophen-4-yl)-1-(4-((2-oxo-1,2-dihydroquinolin-7-yl)oxy)butyl)piperazin-1-ium-1-yl)methyl ((decanoyloxy)methyl)phosphate]
cytotoxicity at 24 h, 300 µM (in vitro): 8%
Concentration of brexpiprazole formed [1]: 0 nM
Concentration of evaluation compound decreased [1]: 70 nM

CCOC(=O)CCCC(=O)OCOP(=O)([O-])OC[N+]1(CCCCOc2ccc3ccc(=O)[nH]c3c2)CCN(c2cccc3sccc23)CC1 [EX 68]
cytotoxicity at 24 h, 300 µM (in vitro): -6%
Concentration of brexpiprazole formed [1]: 0 nM
Concentration of evaluation compound decreased [1]: 90 nM

O=C(OCOP(=O)([O-])OC[N+]1(CCCCOc2ccc3ccc(=O)[nH]c3c2)CCN(c2cccc3sccc23)CC1)C1CCCCC1 [EX 18, (4-(benzo[b]thiophen-4-yl)-1-(4-((2-oxo-1,2-dihydroquinolin-7-yl)oxy)butyl)piperazin-1-ium-1-yl)methyl (((cyclohexanecarbonyl)oxy)methyl)phosphate]
cytotoxicity at 24 h, 300 µM (in vitro): 8%
Concentration of brexpiprazole formed [1]: 0 nM
Concentration of evaluation compound decreased [1]: -10 nM

CC(C)(C)OP(=O)([O-])OC[N+]1(CCCCOc2ccc3ccc(=O)[nH]c3c2)CCN(c2cccc3sccc23)CC1 [EX 4, (4-(benzo[b]thiophen-4-yl)-1-(4-((2-oxo-1,2-dihydroquinolin-7-yl)oxy)butyl)piperazin-1-ium-1-yl)methyl tert-butyl phosphate]
cytotoxicity at 24 h, 300 µM (in vitro): -5%
Concentration of brexpiprazole formed [1]: 0 nM
Concentration of evaluation compound decreased [1]: 20 nM

O=C(OC[N+]1(CCCCOc2ccc3ccc(=O)[nH]c3c2)CCN(c2cccc3sccc23)CC1)N1CCCCC1.[I-] [REX 4, 4-(benzo[b]thiophen-4-yl)-1-(4-((2-oxo-1,2-dihydroquinolin-7-yl)oxy)butyl)-1-(((piperidine-1-carbonyl)oxy)methyl)piperazin-1-ium iodide, reference compound]
cytotoxicity compared with control compounds (in words) (HL-60 cells): stronger cytotoxicity than that of the Reference Example 3 compound
cytotoxicity (%) Evaluation compound results (HL-60 cells): 83%

COCCn1nc(C(=O)OCOP(=O)([O-])OC[N+]2(CCCCOc3ccc4ccc(=O)[nH]c4c3)CCN(c3cccc4sccc34)CC2)c2ccccc21 [EX 82]
cytotoxicity (%) Evaluation compound results (HL-60 cells): -2%
Concentration of brexpiprazole formed [1]: 0 nM
Concentration of evaluation compound decreased [1]: 20 nM

O=c1ccc2ccc(OCCCC[N+]3(COP(=O)([O-])OCCN4CCOCC4)CCN(c4cccc5sccc45)CC3)cc2[nH]1 [EX 14, (4-(benzo[b]thiophen-4-yl)-1-(4-((2-oxo-1,2-dihydroquinolin-7-yl)oxy)butyl)piperazin-1-ium-1-yl)methyl (2-morpholinoethyl)phosphate]
cytotoxicity at 24 h, 300 µM (in vitro): -10%
Concentration of brexpiprazole formed [1]: 0 nM
Concentration of evaluation compound decreased [1]: 80 nM
